Patent US20250034171A1, “IMIDAZOPYRIDINE AMIDES AND RELATED COMPOUNDS FOR USE IN THE TREATMENT OF BACTERIAL INFECTIONS” (priority 2021, published 2025)
In brackets after ≈: the same amount, converted by molar mass. Like-named read-outs stand apart in the source and are kept apart here.

Assays:
[1] = test system: Salmonella typhimurium Ames II Mixed Strains (TA7001-TA7006) and TA98; test: Genotoxicity assay (AmesIIb mutagenicity test); assay type: cell-based; note: key: an AmesIIb score of 1 shows no genotoxicity signals
Excerpt: The aim is to evaluate compounds (and/or their metabolites) for their ability to induce reverse mutations in a gene of histidine-requiring Salmonella typhimurium strains to produce histidine-independent strains of these bacteria, in the absence and in the presence of a mammalian metabolic activation system.
Point mutations were made in the histidine (His) operon in Salmonella typhimurium, rendering the bacteria incapable of producing histidine. These single base substitutions are positioned at strategic points within the His gene, resulting in his-organisms that cannot grow unless histidine is supplied. When a mutagenic event occurs, base substitutions within the His gene then cause the reversion of the his-Ames II™ strains to His.
A chemical's mutagenic potential is assessed by exposing these his-organisms to varying concentrations of chemical and selecting for the reversion event. Medium lacking histidine is used for this selection which allows only those cells that have undergone the his- to His reversion to survive and grow.
The assay may be performed using a kit and instructions from Xenometric. The two strains provided in the Xenometric kit are the Ames II™ Mixed Strains and TA98. The Ames II™ Mixed Strains contains an equimolar mixture of the Ames II™ TA7001-TA7006 strains. Individually, these strains are designed to revert by only one specific base-pair substitution out of six possible changes. Thus, when mixed, all six base substitution mutations can be represented in one culture. This kit also contains TA98 for the detection of frameshift mutations.

[2] = HTChem stab assay (chemical stability in buffer pH2, pH4 and pH7 vs DMSO reference); assay type: physicochemical
Description: HTChem stab assay was used to assess the chemical stability of the compounds. 72 h stirring at rt in a buffer pH2, pH4 and pH7 vs a reference DMSO solution. HTChem stab assay is based on the handbook of Pharmaceutical Stress Testing, Predicting Drug Degradation, second edition, authors Baertschi, Alsante, Reed ISBN 978-143980179-6.
Compounds were plated (1 μl 10 mM DMSO stock in 96 well plate (DMSO control+3 pH conditions), one plate per condition).
200 μL of respectively DMSO, Buffer/DMSO mix pH2, Buffer/DMSO mix pH4 and Buffer/DMSO mix pH7 was added.
After 72 h shaking (300 rpm) at room temperature the samples were analysed by LC/UV/MS. Chromatograms of samples (stability conditions) were compared with the chromatograms of control sample (DMSO). Extra peaks were flagged and identified by mass spectrometry. Sample purity (reference included) were reported.
• pH3 buffer: For 11; weigh 4.14 g NaH2PO4·H2O, add 600 ml H2O, add H3PO4 to pH3, add H2O to 1000 ml. Filter over 0.2 μm and store at 4° C. Expires after 30 days. • pH6 buffer: For 1 l; weigh 4.14 g NaH2PO4·H2O, add 600 ml H2O, add 1N NaOH to pH6, add H2O to 1000 ml. Filter over […] and store at 4° C. Expires after 30 days.
• pH2 Buffer/DMSO (StabSolvent): mix 2 parts of HCl 0.1N with 1 part of DMSO • pH4 Buffer/DMSO (StabSolvent): mix 2 parts of buffer pH3 with 1 part of DMSO • pH7 Buffer/DMSO (StabSolvent): mix 2 parts of buffer pH6 with 1 part of DMSO measure pH prior to use.
Instrument: Acquity UPLC; Column: Acquity HSS T3, 50 mm length×2.1 mm i.d., 1.8 μm particle size. Detectors: PDA (250-350 nm) and SQD2 (90-1500m/z). Mobile phase A: 0.1% Formic acid in water; Mobile phase B: 0.1% Formic acid in Acetonitrile.
Injection volume: 5 μL, flow rate 0.6 mL/min.
Data processing including peak integration and identification was done with Waters OpenLynx software.

[3] = test system: Mycobacterium tuberculosis strain H37Rv; test: Test 2: MIC determination against M. tuberculosis, resazurin fluorescence; assay type: cell-based; settings: Test 2, M. tuberculosis H37Rv; for MIC90: read-out: Bacterial activity MIC90; for IC50: read-out: Bacterial activity pMIC50 (converted)
[4] = Metabolic stability in liver microsomes (intrinsic clearance); assay type: in vitro ADME; settings: for Metabolic Stability (liver microsome intrinsic clearance) Clearance (mouse, μl/min./mg protein) / Metabolic Stability Half life (mouse, min.): mouse liver microsomes; for half-life at 1 µM / microsomal CLint at 1 µM: microsomes
Summary of the method: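 Parent-compound loss, followed by LC-MS/MS peak area versus t=0, was tracked over 0, 5, 10, 20, 40 and 60 min in NADPH-initiated (1 mM) microsomal incubations: 0.5 mg/ml protein, pH 7.4 phosphate, 1 mM MgCl2, 37° C, substrate typically 1 μM. Half-life from regression gave intrinsic clearance per mg protein.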

[5] = buffer pH2/DMSO, 72 h stirring at rt
[6] = buffer pH4/DMSO, 72 h stirring at rt
[7] = buffer pH7/DMSO, 72 h stirring at rt
[8] = reference DMSO solution, 72 h stirring at rt
[9] = Mycobacterium tuberculosis, H37RV
[10] = human, pH 7.4, Metabolic Stability Half life (human, min.)
[11] = human, pH 7.4, human liver microsomes, read-out: Metabolic Stability (liver microsome intrinsic clearance) Clearance (human, μl/min./mg protein)
[12] = mouse, pH 7.4, Metabolic Stability Half life (mouse, min.)
[13] = mouse, pH 7.4, mouse liver microsomes, read-out: Metabolic Stability (liver microsome intrinsic clearance) Clearance (mouse, μl/min./mg protein)

Row | SMILES | GeneTox AmesIIb Score [1] | Chemical stability data, Buffer pH2 [2, 5] [%] | Chemical stability data, Buffer pH4 [2, 6] [%] | Chemical stability data, Buffer pH7 [2, 7] [%] | Chemical stability data, Vehicle DMSO [2, 8] [%] | Bacterial activity pMIC50 [3] | MIC90 [3] [µM] | Metabolic Stability (liver microsome intrinsic clearance) Clearance (mouse, μl/min./mg protein) [4] [μl/min./mg protein] | Metabolic Stability Half life (mouse, min.) [4] [h] | GeneTox AmesIIb Score ([1]; Salmonella typhimurium) | MIC90 [3, 9] [µM] | IC50 [3, 9] [pM] | half-life at 1 µM [4, 12] [h] | microsomal CLint at 1 µM [4, 13] [µL/min/mg] | also measured
1 | CCc1nc2n(c1C(=O)NCc1ccc(-c3nc4n(n3)CCC(C(F)(F)F)C4)cc1)CCCC2 (racemic) [Compound 13ab] | 1 | 100 | 100 | 100 | 100 | 8.067 | 0.024 (≈ 0.0113 µg/mL) | 15.5 | 1.49 | – | – | – | – | – | –
2 | O=C(NCc1ccc(-c2nc3n(n2)CCC(C(F)(F)F)C3)cc1)c1c(C(F)F)nc2ccccn12 (racemic) [Compound 14ab] | 1 | 100 | 100 | 100 | 100 | 7.877 | 0.036 (≈ 0.0177 µg/mL) | <7.7 | >3 | – | – | – | – | – | –
3 | CCc1nc2ncccn2c1C(=O)NCc1ccc(-c2nc3n(n2)CCC(C(F)(F)F)C3)cc1 (racemic) [Compound 17ab] | 1 | 100 | 97 | 100 | 100 | 7.526 | 0.105 (≈ 0.0493 µg/mL) | <7.7 | >3 | – | – | – | – | – | –
4 | O=C(NCc1ccc(-c2cn3c(n2)CC(C(F)(F)F)CC3)cc1)c1c(C(F)(F)F)nc2ccccn12 (racemic) [Compound 18ab] | 1 | 98 | 100 | 100 | 98 | 7.431 | 0.142 (≈ 0.0721 µg/mL) | 11.1 | 2.08 | – | – | – | – | – | –
5 | Cc1cnc2nc(C3CC3)c(C(=O)NCc3ccc(-c4nc5n(n4)CCC(C(F)(F)F)C5)cc3)n2c1 (stereo not drawn) [Compound 8ab] | – | – | – | – | – | – | – | – | – | 1 | 0.018 (≈ 0.00892 µg/mL) | 7110 | – | – | Chemical stability data, Vehicle DMSO ([2]; 72 h, 50 µM): 100%; Chemical stability data, Buffer pH2 ([2]; 72 h, 50 µM, pH 2): 100%; Chemical stability data, Buffer pH4 ([2]; 72 h, 50 µM, pH 4): 100%; Chemical stability data, Buffer pH7 ([2]; 72 h, 50 µM, pH 7): 100%
6 | CCc1cnc2nc(CC)c(C(=O)NCc3ccc(-c4cn5c(n4)C[C@H](C(F)(F)F)CC5)cc3)n2c1 [Compound 151] | – | – | – | – | – | – | – | – | – | 1 | 0.054 (≈ 0.0268 µg/mL) | 18200 | 0.37 | 62.5 | half-life at 1 µM [4, 10]: 0.0717 h; microsomal CLint at 1 µM [4, 11]: 326 µL/min/mg
7 | CCc1cnc2nc(CC)c(C(=O)NCc3ccc(-c4cn5c(n4)C[C@@H](C(F)(F)F)CC5)cc3)n2c1 [Compound 152] | – | – | – | – | – | – | – | – | – | 1 | 0.088 (≈ 0.0437 µg/mL) | 23400 | 0.178 | 129 | half-life at 1 µM [4, 10]: < 0.0667 h; microsomal CLint at 1 µM [4, 11]: > 347 µL/min/mg
8 | CCc1nc2n(c1C(=O)NCc1ccc(-c3cc4n(n3)CCC(C(F)(F)F)C4)cc1)CCCC2 (stereo not drawn) [Compound 179] | – | – | – | – | – | – | – | – | – | 1 | 0.0097 (≈ 0.00457 µg/mL) | 3310 | 0.432 | 53.5 | –
9 | CCc1nc2ncccn2c1C(=O)NCc1ccc(-c2nc3n(n2)CC[C@@H](C2CC2)C3)cc1 [Compound 183] | – | – | – | – | – | – | – | – | – | 1 | 0.48 (≈ 0.212 µg/mL) | 646000 | 2.28 | 10.1 | –
10 | CCc1nc2ncccn2c1C(=O)NCc1ccc(-c2nc3n(n2)CC[C@H](C2CC2)C3)cc1 [Compound 184] | – | – | – | – | – | – | – | – | – | 1 | 0.43 (≈ 0.19 µg/mL) | 166000 | > 3 | < 7.7 | –
11 | CCc1nc2ncc(NC(=O)OC(C)(C)C)cn2c1C(=O)NCc1ccc(-c2nc3n(n2)CCC(C(F)(F)F)C3)cc1 (stereo not drawn) [Compound 194] | 1 | – | – | – | – | 7.43 | 0.1 (≈ 0.0585 µg/mL) | <7.7 | >3 | – | – | – | – | – | Metabolic Stability (liver microsome intrinsic clearance) Clearance (human, μl/min./mg protein) ([4]; human liver microsomes): <7.7 μl/min./mg protein; Metabolic Stability Half life (human, min.) ([4]; human liver microsomes): >3 h
12 | CCc1nc2nc(C)c(N(Cc3ccc(OC)cc3OC)C(=O)OC(C)(C)C)cn2c1C(=O)NCc1ccc(-c2nc3n(n2)CC[C@H](C(F)(F)F)C3)cc1 [Compound 196] | 1 | – | – | – | – | 7.56 | 0.067 (≈ 0.0502 µg/mL) | <7.7 | >3 | – | – | – | – | – | –
